In article PMC7822874, “Chemoprotective antimalarials identified through quantitative high-throughput screening of Plasmodium blood and liver stage parasites” (Scientific Reports, 2021):

Test system: Plasmodium falciparum Dd2 asexual blood stage parasites
Experiment: microbe, parasite or virus in culture
Design: species or system Plasmodium falciparum Dd2 in human erythrocytes; single determination (one 11-point concentration-response curve)
Settings: Plasmodium falciparum, DD2, Erythrocyte, 72 h; read-out: AC50

Compound | AC50
CCOC(=O)c1cc(C)n(CC2CCC(C(=O)Nc3cccc(Cl)c3)CC2)c1C (centres unmarked) [NCGC00141645-01] | 8.41 µM
CCOC(=O)c1c(N)sc2c1CCN(Cc1ccccc1)C2 [NCGC00159451-02] | 5.31 µM
COC(=O)CC1Oc2ccc(Cl)cc2-n2cc(-c3ccc(F)cc3)nc21 (centres unmarked) [NCGC00164810-01] | 4.22 µM
Cc1cc(O)c(-c2ccnc3cc(-c4ccccc4)nn23)cc1Cl [NCGC00164840-01] | 1.88 µM
O=C(Nc1cc(Cl)ccc1O)c1cc2nc(-c3ccc4c(c3)OCO4)cc(C(F)(F)F)n2n1 [NCGC00164969-01] | 2.66 µM
COc1ccc(C2Nc3ccccc3C(=O)N2Cc2ccccc2)cc1COc1ccc(Cl)cc1Cl (centres unmarked) [NCGC00165212-01] | 8.41 µM
CCC(=O)O[C@]1(C(=O)CCl)[C@@H](C)C[C@H]2[C@@H]3C[C@H](F)C4=CC(=O)C=C[C@]4(C)[C@@]3(F)[C@@H](O)C[C@@]21C [NCGC00167451-01] | 10.6 µM
CCOC(=O)C1(c2ccccc2)CCN(CCC(C#N)(c2ccccc2)c2ccccc2)CC1 [NCGC00167963-01] | 5.31 µM
C=C[C@]1(C)C[C@@H](OC(=O)CSC(C)(C)CNC(=O)[C@H](N)C(C)C)[C@]2(C)[C@H](C)CC[C@]3(CCC(=O)[C@H]32)[C@@H](C)[C@@H]1O [NCGC00167968-01] | 8.41 µM
COc1ccc2c(c1)OC(C)(C)[C@@H](c1ccccc1)[C@@H]2c1ccc(OCCN2CCCC2)cc1 [NCGC00181100-01] | 6.68 µM
O=C(C[C@@H]1NCCC[C@H]1O)Cn1cnc2cc(Br)c(Cl)cc2c1=O [NCGC00181132-01] | 2.37 µM
Oc1cc(Nc2ccccc2)cc2cccnc12 [NCGC00183789-01] | 6.68 µM
Oc1cc(NCc2ccc(F)cc2)cc2cccnc12 [NCGC00183798-01] | 4.73 µM
CN(C)CCNCc1ccc(-c2ccccc2)o1 [NCGC00326685-02] | 10.6 µM
Cc1noc(-c2cccs2)c1C(=O)NC(C)c1cccc2ccccc12 (centres unmarked) [NCGC00358764-02] | 0.668 µM
Cn1cccc1CN1CCCC2(C1)C(NC1CCCCC1)=NC(=O)N2c1cccnc1 (centres unmarked) [NCGC00374042-01] | 5.31 µM
O=C1N=C(NC2CCCCC2)C2(CCN(Cc3ccccc3)C2)N1c1cc(F)cc(F)c1 (centres unmarked) [NCGC00374188-01] | 4.22 µM
O=C1N=C(NC2CCCCC2)C2(CCN(Cc3ccc(F)cc3)C2)N1c1cc(F)cc(F)c1 (centres unmarked) [NCGC00374193-01] | 4.22 µM
COc1ccc(CN2CCC3(C2)C(NC2CCCCC2)=NC(=O)N3c2cccnc2)cc1 (centres unmarked) [NCGC00374261-01] | 2.11 µM
O=C1N=C(NC2CCCC2)C2(CCN(CC3CC3)C2)N1c1cc(F)cc(F)c1 (centres unmarked) [NCGC00374289-01] | 1.5 µM
O=C1N=C(NC2CCCC2)C2(CCN(Cc3ccccc3)C2)N1c1cc(F)cc(F)c1 (centres unmarked) [NCGC00374299-01] | 7.5 µM
O=C1N=C(NC2CCCC2)C2(CCN(Cc3ccc(F)cc3)C2)N1c1cc(F)cc(F)c1 (centres unmarked) [NCGC00374305-01] | 10.6 µM
COc1ccccc1-c1nnc2n1C(C(=O)NCCc1ccc(Cl)cc1)CC2 (centres unmarked) [NCGC00375512-01] | 3.35 µM
FC(F)(F)CN1C2CCC1CN(c1nnc(Cl)c3ccccc13)C2 [NCGC00375660-01] | 2.11 µM
COc1ccc(CC(=O)N2Cc3ccccc3CC3(CCCN3C)C2)cc1 (centres unmarked) [NCGC00377108-01] | 9.44 µM

Compound | AC50
O=C1NCc2ccccc2CC12CCCCN2CC1CC=CCC1 (centres unmarked) [NCGC00377392-01] | 2.34 µM
Cn1cccc1CN1CCCC2(Cc3ccccc3CNC2=O)C1 (centres unmarked) [NCGC00377565-01] | 13.2 µM
O=C1NCc2ccccc2CC12CCCN(CC1=CCCCC1)C2 (centres unmarked) [NCGC00377566-01] | 3.31 µM
NC(Cc1ccccc1)C(=O)N1CCC2(CC1)CN(C(=O)c1ccc(Cl)cc1)CCO2 (centres unmarked) [NCGC00378158-01] | 0.841 µM
C#CCNC(=O)C[C@@H]1c2nc(NC(=O)OCC=C)sc2C[C@@H]2[C@](C)(CO)[C@H](O)CC[C@]21C [NCGC00391491-01] | 15 µM
COC[C@H]1CCCN1[C@@H]1[C@H](O)[C@H](CO)O[C@@H]1CN(Cc1cccc(Cl)c1)Cc1cccc(Cl)c1 [NCGC00391669-01] | 10.6 µM
O=C(Nc1ccccc1)[C@H]1O[C@H](CCN2CCN(c3ccc(F)cc3)CC2)CC[C@@H]1O [NCGC00391966-01] | 10.9 µM
O[C@@H]1C[C@@](CNCc2cccc(Cl)c2)(COc2ccccc2)C[C@@H]1O [NCGC00392187-01] | 3.85 µM
COc1ccc(CN2C[C@H]3CN(Cc4c[nH]c5ccccc45)CCN3C2=O)cc1 [NCGC00392270-01] | 3.85 µM
CC[C@H]1C[N@@]2CC[C@H]1C[C@@H]2CNCc1ccc(SC)cc1 [NCGC00392466-01] | 4.33 µM
CC(C)(C)c1ccc(C(=O)Nc2ccc(C(O)[C@H]3COCC(=O)N3Cc3ccccn3)cc2)cc1 (some centres unmarked) [NCGC00392498-01] | 5.31 µM
COc1ccccc1N1CCN([C@H]2[C@@H]3OC[C@@H](O3)[C@@H](NCc3ccc(-c4ccccc4)cc3)[C@@H]2O)CC1 [NCGC00392675-01] | 15 µM
CCCc1nnc(C[C@@H]2C[C@@H](C(C)C)[C@H](CN3CCC[C@H]3CO)C=C2C)o1 [NCGC00392769-01] | 17.2 µM
CN1CCN(c2ccc(-c3noc([C@@H]4CCCN4C4CCCCC4)n3)cn2)CC1 [NCGC00392835-01] | 19.3 µM
COc1ccc(CN2C(=O)COC[C@@H]2[C@H](O)c2ccc(NC(=O)c3ccc(C(C)(C)C)cc3)cc2)cc1 [NCGC00392864-01] | 2.11 µM
COC(=O)c1ccc2nc(CO[C@H]3CN(Cc4cn(C)c5ccccc45)C[C@H]3F)[nH]c2c1 [NCGC00392963-01] | 13.3 µM
CC1=C[C@@H](CN(C)C)[C@H](C(C)C)C[C@H]1Cc1nc2cccc(C)c2[nH]1 [NCGC00393074-01] | 15.3 µM
COc1ccccc1CNC[C@H]1O[C@H](Cc2cc(CN(C)Cc3ccccc3)on2)CC[C@@H]1O [NCGC00393289-01] | 2.99 µM
O[C@H]1CC[C@@H](Cc2cc(COc3ccccc3)on2)O[C@@H]1CNCc1cccc(Cl)c1 [NCGC00393311-01] | 2.11 µM
O[C@@H]1C[C@@](CNCC2CCCC2)(COc2ccc(C(F)(F)F)cn2)C[C@@H]1O [NCGC00393440-01] | 5.31 µM
CN(Cc1ccccc1)Cc1cc(C[C@@H]2CC[C@H](O)[C@@H](CNCc3ccccc3)O2)no1 [NCGC00393466-01] | 4.73 µM
Clc1ccc(CN2CCOC[C@H](Oc3ccccc3)C2)cc1 [NCGC00393521-01] | 17.2 µM
Cc1ccc(CN2CCOC[C@H]2c2nc(C(C)(C)C)c[nH]2)cc1 [NCGC00393602-01] | 13.7 µM
CC1=C[C@@H](CNC(C)C)[C@H](C(C)C)C[C@H]1Cc1nnc(-c2ccc(C)cc2)o1 [NCGC00394176-01] | 13.7 µM
COc1ccc(-c2nnc(C[C@@H]3C[C@@H](C(C)C)[C@H](CNCc4cccnc4)C=C3C)o2)cc1 [NCGC00394182-01] | 6.68 µM

Compound | AC50
Oc1ccccc1CN1CCOC[C@H]1c1nc(-c2ccc(C(F)(F)F)cc2)c[nH]1 [NCGC00394286-01] | 4.85 µM
COc1ccc(-c2c[nH]c([C@@H]3COCCN3Cc3ccccc3O)n2)cc1 [NCGC00394307-01] | 17.2 µM
CC1CCN(C(=O)C[C@@H]2c3nc(NC(=O)c4cccc(F)c4)sc3C[C@@H]3[C@](C)(CO)[C@H](O)CC[C@]32C)CC1 [NCGC00394310-01] | 10.6 µM
C#CCN(C)C(=O)C[C@@H]1c2nc(NC(=O)c3ccc(OC)cc3)sc2C[C@@H]2[C@](C)(CO)[C@H](O)CC[C@]21C [NCGC00394313-01] | 2.66 µM
CCN(CC)C(=O)C[C@@H]1c2nc(NC(=O)c3cccc(F)c3)sc2C[C@@H]2[C@](C)(CO)[C@H](O)CC[C@]21C [NCGC00394316-01] | 9.44 µM
CC1=C[C@@H](CNC2CC2)[C@H](C(C)C)C[C@H]1Cc1nnc(-c2ccc(C)cc2)o1 [NCGC00394380-01] | 17.2 µM
CC1=C[C@@H](CN2CCOCC2)[C@H](C(C)C)C[C@H]1Cc1nnc(-c2ccc([N+](=O)[O-])cc2)o1 [NCGC00394583-01] | 9.44 µM
CC1=C[C@@H](CNC(=O)COc2ccccc2)[C@H](C(C)C)C[C@H]1Cc1nnc(-c2cncn2C)o1 [NCGC00394594-01] | 13.3 µM
Cc1nn(-c2ccc(C(C)(C)C)cc2)c(C)c1[C@@H]1C=C[C@@H](NC(=O)c2ccco2)C1 [NCGC00394638-01] | 12.2 µM
c1cc(-c2noc([C@@H]3Cc4[nH]cnc4CN3CC3CCCCC3)n2)ccn1 [NCGC00394653-01] | 21.7 µM
COc1ccc(-c2nnc(C[C@@H]3C[C@@H](C(C)C)[C@H](CN4CCC(O)CC4)C=C3C)o2)cc1 [NCGC00394772-01] | 9.44 µM
CC1=C[C@@H](CN2CCC[C@H]2CO)[C@H](C(C)C)C[C@H]1Cc1nnc(-c2ccc(N(C)C)cc2)o1 [NCGC00394794-01] | 13.3 µM
COCCOc1cc(-c2noc([C@@H]3CCCN3CC3CC3)n2)ccn1 [NCGC00394865-01] | 15.3 µM
COCCOc1ccnc(-c2noc([C@@H]3CCCN3Cc3cn(C)c4ccccc34)n2)c1 [NCGC00394869-01] | 19.3 µM
CC(C)(C)c1c[nH]c([C@@H]2COCCN2Cc2ccccc2O)n1 [NCGC00395090-01] | 13.7 µM
C[C@]1(CO)[C@H]2Cc3sc(NC(=O)c4cccc(F)c4)nc3[C@@H](CC(=O)N3CCOCC3)[C@]2(C)CC[C@H]1O [NCGC00395198-01] | 8.41 µM
C#C[C@H]1C[N@@]2CC[C@H]1C[C@@H]2CNCc1cccc(Cl)c1 [NCGC00395254-01] | 4.85 µM
Cc1ccc2c(n1)N(C)[C@H](CO)CCN(Cc1ccc(C(F)(F)F)cc1)C2 [NCGC00395284-01] | 15.3 µM
C[C@H]1[C@@H]2[C@@H](O)C([C@H](C)C(=O)NCc3cc(F)cc(F)c3)CC[C@@]2(C)CC[C@@H]1NC(=O)c1cncnc1 (some centres unmarked) [NCGC00395377-01] | 4.22 µM
COc1ccccc1CNC(=O)[C@@H](C)C1CC[C@@]2(C)CC[C@H](NC(=O)c3cncnc3)[C@@H](C)[C@@H]2[C@H]1O (some centres unmarked) [NCGC00395379-01] | 2.37 µM
CC1=C[C@@H](CN2CCCC2)[C@H](C(C)C)C[C@H]1Cc1nnc(-c2ccc([N+](=O)[O-])cc2)o1 [NCGC00395425-01] | 3.85 µM
COc1cccc(NC(=O)N[C@H]2C[C@@H](c3nc(C)no3)N(C)C2)c1 [NCGC00395440-01] | 17.2 µM
CN(C)Cc1cc(C[C@@H]2C[C@H](NCc3ccccc3O)C2(C)C)no1 [NCGC00395458-01] | 17.2 µM
O[C@H]1[C@H](NCC2CCCC2)[C@@H](c2ccccc2)C[C@H]1O [NCGC00395463-01] | 6.11 µM
